The test deals with T1, naringinase.
T1 construct: native enzyme from culture, NADES extractive fermentation, Sephadex G-15 and DEAE-Sepharose; a beta-glucosidase activity (prunin to naringenin) may be included
Description: Lineweaver-Burk; modified Davis assay, residual naringin at […] nm. In kind it is biochemical, Bacillus amyloliquefaciens. The note with it: general assay: acetate buffer pH 4.2, 333 K, 60 min; printed unit is not a concentration; printed kcat/Km fits 1.5 × 10^-3 M.

As a reminder, the Km is the substrate concentration at which the rate is half of its maximum.

In the case of `C[C@@H]1O[C@@H](O[C@H]2[C@H](Oc3cc(O)c4c(c3)O[C@H](c3ccc(O)cc3)CC4=O)O[C@H](CO)[C@@H](O)[C@@H]2O)[C@H](O)[C@H](O)[C@H]1O` [Naringin], the Km was found to be 1500 µM.

(Values after paper PMC9217967, “Simultaneous production and sustainable eutectic mixture based purification of narringinase with Bacillus amyloliquefaciens by valorization of tofu wastewater” (Scientific Reports, 2022).)
